Experimental data from patent US11584749B2, “Phosphor-tetrazine compound and use thereof” (Spark Biopharma, Inc., priority 2018, dated 2023).

Key:
[1] = Second rate constant of the reaction with TCO; type: physicochemical
Method: (§1) In this test, the absorption spectrum was measured with a UV-VIS spectrophotometer UV-1650PC (Shimadzu), and the emission spectrum and motion data were measured using a Cary Eclipse Fluorescence spectrophotometer (Varian Associates), and the absolute quantum yield was measured with a QE-2000 (Otsuka Electronics).

[2] = Change in emission properties (quantum yield, excitation/emission maxima, fluorescence amplification) before and after reaction with TCO; type: physicochemical; details: for fluorescence amplification rate (on/off): before and after reaction with TCO
Method: as §1
The emission spectrum was compared when the maximum fluorescence intensity was reached before and after the reaction of the compound and TCO, and changes in fluorescence of the compounds of Examples 1 to 4 and Comparative Examples 1 to 4 were observed, and the results are shown in Table 1 below.
The emission spectrum was compared when the maximum fluorescence intensity was reached before and after the reaction of the compound and TCO, and changes in fluorescence of the compounds of Examples 1 and 4 and Comparative Examples 3 to 6 were observed, and the results are shown in Table 2 below, FIGS. 3 and 4.

[3] = tested on: microtubule (HeLa human cervical cancer cells); assay: Fluorescence bio-imaging of microtubule in fixed HeLa cells pre-treated with Docetaxel-TCO conjugate; type: cell-based; details: for fluorescence signal on addition to cells: fixed HeLa cells cultured with Dox-TCO for 1 hour, washed with PBS; for specificity of staining, immunofluorescence with α-tubulin antibody: fixed HeLa cells, Dox-TCO
Method: (§2) The fluorescence imaging test was performed using a DeltaVision Elite imaging system of GE Healthcare, and an Olympus IX-71 microscope was used.
Docetaxel-TCO conjugate (Dox-TCO) was used for fluorescence bio-imaging of microtubule. HeLa human cervical cancer cells were fixed, and cultured with Dox-TCO for 1 hour, and then washed with PBS.

[4] = tested on: mitochondria (HeLa cells); assay: Fluorescence imaging of mitochondria in living HeLa cells pre-treated with TPP-TCO; type: cell-based, human; details: for position of fluorescence signal versus MitoTracker Deep Red: HeLa cells, TPP-TCO and compound; for fluorescence mitochondria image: living HeLa cells treated with TPP-TCO for 1 hour; for fluorescence mitochondria image / fluorescence expression intensity in the extracellular region: then compound; for fluorescence expression intensity in the extracellular region: living HeLa cells treated with TPP-TCO
Method: as §2
In order to confirm the fluorescence imaging of mitochondria in living cells, it was tested by the following method.
HeLa cells were incubated for 1 hour in the presence or absence of triphenylphosphonium (TPP)-TCO, and then HeLa cells were washed and treated with the compound of Example 5 or Example 6.
In addition, in order to confirm the selectivity of TPP-TCO and Example 5, and TPP-TCO and Example 6 for mitochondria, HeLa cells were treated with MitoTracker Deep Red, a mitochondria coloring dye, As a result, it was observed that the position of the fluorescence signal of MitoTracker Deep Red was consistent with that of Example 5 or Example 6.

| Compound | K2 second rate constant value ([1]; Table 1, measured at 20° C.) [m^−1s^−1] | K2 second rate constant value ([1]; Table 2, measured at 20° C.) [m^−1s^−1] | λem maximum emission wavelength ([2]; Table 1) [nm] | λex largest excitation maxima at a given maximum emission wavelength ([2]; Table 1) [nm] | Φon absolute quantum yield after the reaction with TCO ([2]; Table 1) | fluorescence amplification rate (on/off) ([2]; Table 1) | Φoff absolute quantum yield before the reaction with TCO ([2]; Table 1) | λem maximum emission wavelength ([2]; Table 2) [nm] | λex largest excitation maxima at a given maximum emission wavelength ([2]; Table 2) [nm] | Φon absolute quantum yield after the reaction with TCO ([2]; Table 2) | fluorescence amplification rate (on/off) ([2]; Table 2) | Φoff absolute quantum yield before the reaction with TCO ([2]; Table 2) | fluorescence signal amplification efficiency after the reaction with TCO ([2]; Table 2, long wavelength range, diethylamino group at R1) | fluorescence signal on addition to cells [3] | specificity of staining, immunofluorescence with α-tubulin antibody [3] | position of fluorescence signal versus MitoTracker Deep Red [4] | fluorescence mitochondria image [4] | fluorescence expression intensity in the extracellular region [4] |
| --- | --- | --- | --- | --- | --- | --- | --- | --- | --- | --- | --- | --- | --- | --- | --- | --- | --- | --- |
| CCN(CC)c1ccc(-c2c3c(n4ccc(-c5nnc(C)nn5)cc24)C(=O)N(CCCNC(=O)OC(C)(C)C)C3)cc1 [Example 4, tert-butyl (3-(9-(4-(diethylamino)phenyl)-7-(6-methyl-1,2,4,5-tetrazin-3-yl)-3-oxo-1,3-dihydro-2H-pyrrolo[3,4-b]indolizin-2-yl)propyl)carbamate] | 22 | 22 | 581 | 401 | 0.045 | >600 | 0.001 | 581 | 401 | 0.045 | >600 | 0.001 | excellent |  |  |  |  |  |
| Cc1nnc(-c2ccn3c4c(c(-c5ccccc5)c3c2)CN(CCCN2CCN(CCC(=O)O)CC2)C4=O)nn1 [Example 5, 3-(4-(3-(7-(6-methyl-1,2,4,5-tetrazin-3-yl)-3-oxo-9-phenyl-1,3-dihydro-2H-pyrrolo[3,4-b]indolizin-2-yl)propyl)piperazin-1-yl)propanoic acid] |  |  |  |  |  |  |  |  |  |  |  |  |  | a bright fluorescence signal was generated | microtubule specific staining | consistent | a clear fluorescence mitochondria image was observed | 0 |
| CCN(CC)c1ccc(-c2c3c(n4ccc(-c5nnc(C)nn5)cc24)C(=O)N(CCCN2CCN(C)CC2)C3)cc1 [Example 6, 9-(4-(diethylamino)phenyl)-7-(6-methyl-1,2,4,5-tetrazin-3-yl)-2-(3-(4-methylpiperazin-1-yl)propyl)-1,2-dihydro-3H-pyrrolo[3,4-b]indolizin-3-one] |  |  |  |  |  |  |  |  |  |  |  |  |  | a bright fluorescence signal was generated | microtubule specific staining | consistent | a clear fluorescence mitochondria image was observed | 0 |
